{"source": "patent US5324502A", "about": "“Radiopharmaceuticals for imaging the heart” (priority 1992, dated 1994)", "key": {"[1]": {"assay": "PET imaging of the heart with the 68Ga complex", "details": "dog, 20 mCi bolus i.v.", "description": "The dog was placed in a plexiglass holder and positioned within the PET VI camera, a positron emission tomograph that permits simultaneous acquisition of seven transverse tomographic slices with a slice-to-slice separation of 1.44 cm, a slice thickness of 1.39 cm, and a reconstructed resolution of 12.0 mm (full width at half maximum). A transmission scan, necessary for attenuation correction, was obtained using an external ring of ^68 Ge/^68 Ga. A ^15 O-myocardial perfusion image was then obtained for reference employing ^15 O-water and ^15 O-carbon monoxide in a standard PET protocol. After decay of the ^15 O activity to background levels, the ^68 Ga-bis(4,6-dimethoxysalicylaldimino)-N,N'-bis(aminopropyl) ethylene-diamine radiopharmaceutical (20 mCi) was administered to the dog as a bolus intravenous injection. Dynamic PET data was collected for ten 1 minute frames commencing at the time of ^68 Ga injection, followed by eight consecutive 10 minute static images. PET images of the chest were reconstructed from each of the ten one minute frames and each of the eight 10 minute frames. […] Regions-of-interest were defined in the ^68 Ga images allowing quantitative determination of regional myocardial tissue concentrations of tracer."}, "[2]": {"assay": "Octanol/water partition coefficient of radiolabeled gallium complexes", "type": "physicochemical", "details": "1-octanol / isotonic Tris buffer pH 7.0", "experimental": "Octanol/water partition coefficients were measured by vortex mixing 1 mL of 1-octanol and 1 mL of isotonic Tris buffer (pH 7.0) with a 1-5 μL sample of the radiolabeled gallium complex. Following centrifugation at >1200 g for 5 minutes, the octanol and aqueous phases were sampled and counted in an automatic well counter."}, "[3]": {"details": "rat, i.v.; for Heart/Blood / Heart/Liver / Heart/Lungs: ratio", "outline": "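Male Sprague-Dawley rats under ether anesthesia received 1 to 3 μCi of no-carrier-added Ga-67 complex as a femoral-vein bolus. Animals were killed at set times post-injection; organs weighed and counted. Values given as % injected dose per gram and per organ.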"}}, "note": "Where two headings read alike, the source gives them in different places.", "data": [{"compound": "COc1cc([O-])c(C=NCCCNCCNCCCN=Cc2c([O-])cc(OC)cc2OC)c(OC)c1.[68Ga+3]", "note": "[^68 Ga-bis(4,6-dimethoxysalicylaldimino)-N,N'-bis(aminopropyl)ethylenediamine]", "values": [{"measurement": "clearance of myocardial ^68 Ga radioactivity", "setting": "[1]; 90 minute imaging period", "value": "No clearance of myocardial ^68 Ga radioactivity was observed"}, {"measurement": "delineation of the heart in ^68 Ga PET images", "setting": "[1]; beyond 20 minutes post-injection", "value": "the heart was clearly delineated in the ^68 Ga-images with good heart-to-blood and heart-to-lung contrast"}]}, {"compound": "^67 GaL^+ L = [(4-deaSal)2 DM-BAPEN, ^67 GaL^+ L = [bis(diethylaminosalicylaldimino)-N,N'-bis(2,2'-dimethyl-3-aminopropyl)ethylenediamine]]", "values": [{"measurement": "log P", "setting": "[2]", "value": 2.84}, {"measurement": "% Injected Dose per Gram Tissue, Blood", "setting": "[3]; 1 min", "value": "1.91 ± 0.22 % Injected Dose per Gram Tissu"}, {"measurement": "% Injected Dose per Gram Tissue, Brain", "setting": "[3]; 1 min", "value": "0.05 ± 0.01 % Injected Dose per Gram Tissu"}, {"measurement": "% Injected Dose per Gram Tissue, Heart", "setting": "[3]; 1 min", "value": "0.85 ± 0.09 % Injected Dose per Gram Tissu"}, {"measurement": "% Injected Dose per Gram Tissue, Kidney (one)", "setting": "[3]; 1 min", "value": "4.85 ± 0.75 % Injected Dose per Gram Tissu"}, {"measurement": "% Injected Dose per Gram Tissue, Liver", "setting": "[3]; 1 min", "value": "4.91 ± 0.36 % Injected Dose per Gram Tissu"}, {"measurement": "% Injected Dose per Gram Tissue, Lungs", "setting": "[3]; 1 min", "value": "4.23 ± 0.68 % Injected Dose per Gram Tissu"}, {"measurement": "% Injected Dose per Gram Tissue, Spleen", "setting": "[3]; 1 min", "value": "1.61 ± 0.44 % Injected Dose per Gram Tissu"}, {"measurement": "% Injected Dose per Organ, Blood", "setting": "[3]; 1 min", "value": "30.59 ± 3.45", "unit": "% Injected Dose per Organ"}, {"measurement": "% Injected Dose per Organ, Brain", "setting": "[3]; 1 min", "value": "0.08 ± 0.02", "unit": "% Injected Dose per Organ"}, {"measurement": "% Injected Dose per Organ, Heart", "setting": "[3]; 1 min", "value": "0.66 ± 0.06", "unit": "% Injected Dose per Organ"}, {"measurement": "% Injected Dose per Organ, Kidney (one)", "setting": "[3]; 1 min", "value": "4.25 ± 0.52", "unit": "% Injected Dose per Organ"}, {"measurement": "% Injected Dose per Organ, Liver", "setting": "[3]; 1 min", "value": "47.04 ± 6.53", "unit": "% Injected Dose per Organ"}, {"measurement": "% Injected Dose per Organ, Lungs", "setting": "[3]; 1 min", "value": "5.30 ± 0.23", "unit": "% Injected Dose per Organ"}, {"measurement": "% Injected Dose per Organ, Spleen", "setting": "[3]; 1 min", "value": "1.12 ± 0.34", "unit": "% Injected Dose per Organ"}, {"measurement": "% injected dose in heart, 1 min", "setting": "[3]; 1 min, preliminary studies", "value": "0.66 ± 0.06", "unit": "% injected dose"}, {"measurement": "% Injected Dose per Gram Tissue, Blood", "setting": "[3]; 15 min", "value": "0.30 ± 0.04 % Injected Dose per Gram Tissu"}, {"measurement": "% Injected Dose per Gram Tissue, Brain", "setting": "[3]; 15 min", "value": "0.02 ± 0.01 % Injected Dose per Gram Tissu"}, {"measurement": "% Injected Dose per Gram Tissue, Heart", "setting": "[3]; 15 min", "value": "0.57 ± 0.05 % Injected Dose per Gram Tissu"}, {"measurement": "% Injected Dose per Gram Tissue, Kidney (one)", "setting": "[3]; 15 min", "value": "5.55 ± 0.50 % Injected Dose per Gram Tissu"}, {"measurement": "% Injected Dose per Gram Tissue, Liver", "setting": "[3]; 15 min", "value": "4.78 ± 1.20 % Injected Dose per Gram Tissu"}, {"measurement": "% Injected Dose per Gram Tissue, Lungs", "setting": "[3]; 15 min", "value": "2.06 ± 0.21 % Injected Dose per Gram Tissu"}, {"measurement": "% Injected Dose per Gram Tissue, Spleen", "setting": "[3]; 15 min", "value": "3.15 ± 0.45 % Injected Dose per Gram Tissu"}, {"measurement": "% Injected Dose per Organ, Blood", "setting": "[3]; 15 min", "value": "5.08 ± 0.71", "unit": "% Injected Dose per Organ"}, {"measurement": "% Injected Dose per Organ, Brain", "setting": "[3]; 15 min", "value": "0.00 ± 0.00", "unit": "% Injected Dose per Organ"}, {"measurement": "% Injected Dose per Organ, Heart", "setting": "[3]; 15 min", "value": "0.46 ± 0.04", "unit": "% Injected Dose per Organ"}, {"measurement": "% Injected Dose per Organ, Kidney (one)", "setting": "[3]; 15 min", "value": "4.79 ± 0.38", "unit": "% Injected Dose per Organ"}, {"measurement": "% Injected Dose per Organ, Liver", "setting": "[3]; 15 min", "value": "50.24 ± 11.08", "unit": "% Injected Dose per Organ"}, {"measurement": "% Injected Dose per Organ, Lungs", "setting": "[3]; 15 min", "value": "2.71 ± 0.22", "unit": "% Injected Dose per Organ"}, {"measurement": "% Injected Dose per Organ, Spleen", "setting": "[3]; 15 min", "value": "2.29 ± 0.42", "unit": "% Injected Dose per Organ"}, {"measurement": "% Injected Dose per Gram Tissue, Blood", "setting": "[3]; 120 min", "value": "0.06 ± 0.01 % Injected Dose per Gram Tissu"}, {"measurement": "% Injected Dose per Gram Tissue, Brain", "setting": "[3]; 120 min", "value": "0.00 ± 0.00 % Injected Dose per Gram Tissu"}, {"measurement": "% Injected Dose per Gram Tissue, Heart", "setting": "[3]; 120 min", "value": "0.47 ± 0.02 % Injected Dose per Gram Tissu"}, {"measurement": "% Injected Dose per Gram Tissue, Kidney (one)", "setting": "[3]; 120 min", "value": "5.28 ± 0.32 % Injected Dose per Gram Tissu"}, {"measurement": "% Injected Dose per Gram Tissue, Liver", "setting": "[3]; 120 min", "value": "0.96 ± 0.14 % Injected Dose per Gram Tissu"}, {"measurement": "% Injected Dose per Gram Tissue, Lungs", "setting": "[3]; 120 min", "value": "1.02 ± 0.13 % Injected Dose per Gram Tissu"}, {"measurement": "% Injected Dose per Gram Tissue, Spleen", "setting": "[3]; 120 min", "value": "2.89 ± 0.21 % Injected Dose per Gram Tissu"}, {"measurement": "% Injected Dose per Organ, Blood", "setting": "[3]; 120 min", "value": "1.06 ± 0.20", "unit": "% Injected Dose per Organ"}, {"measurement": "% Injected Dose per Organ, Brain", "setting": "[3]; 120 min", "value": "0.02 ± 0.01", "unit": "% Injected Dose per Organ"}, {"measurement": "% Injected Dose per Organ, Heart", "setting": "[3]; 120 min", "value": "0.40 ± 0.04", "unit": "% Injected Dose per Organ"}, {"measurement": "% Injected Dose per Organ, Kidney (one)", "setting": "[3]; 120 min", "value": "5.17 ± 0.19", "unit": "% Injected Dose per Organ"}, {"measurement": "% Injected Dose per Organ, Liver", "setting": "[3]; 120 min", "value": "11.06 ± 2.46", "unit": "% Injected Dose per Organ"}, {"measurement": "% Injected Dose per Organ, Lungs", "setting": "[3]; 120 min", "value": "1.31 ± 0.07", "unit": "% Injected Dose per Organ"}, {"measurement": "% Injected Dose per Organ, Spleen", "setting": "[3]; 120 min", "value": "2.09 ± 0.18", "unit": "% Injected Dose per Organ"}, {"measurement": "% injected dose in heart, 2 h", "setting": "[3]; 2 h, preliminary studies", "value": "0.40 ± 0.04", "unit": "% injected dose"}, {"measurement": "Heart/Blood", "setting": "[3]; 1 min", "value": "0.45 ± 0.04"}, {"measurement": "Heart/Liver", "setting": "[3]; 1 min", "value": "0.17 ± 0.03"}, {"measurement": "Heart/Lungs", "setting": "[3]; 1 min", "value": "0.20 ± 0.02"}, {"measurement": "Heart/Blood", "setting": "[3]; 15 min", "value": "1.94 ± 0.33"}, {"measurement": "Heart/Liver", "setting": "[3]; 15 min", "value": "0.13 ± 0.04"}, {"measurement": "Heart/Lungs", "setting": "[3]; 15 min", "value": "0.28 ± 0.04"}, {"measurement": "Heart/Blood", "setting": "[3]; 120 min", "value": "8.06 ± 1.62"}, {"measurement": "Heart/Liver", "setting": "[3]; 120 min", "value": "0.50 ± 0.07"}, {"measurement": "Heart/Lungs", "setting": "[3]; 120 min", "value": "0.46 ± 0.07"}]}]}
